Reference: patent publication US20240124442A1, “TRICYCLIC-AMIDO-BICYCLIC PRMT5 INHIBITORS” (AMGEN INC., priority 2021, published 2024)

tested on: HCT116 MTAP null cells; test: HCT116 MTAP null cell line proliferation / cell viability (CellTiter-Glo, 6 days); type: cell-based; conditions: 144 h; HCT116 MTAP null cells, 6 days treatment, CellTiter-Glo cell viability; read-out: HCT-116 MTAP null IC50
Summary of the method: (§1)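 Isogenic HCT116 parent and MTAP-knockout cells in RPMI 1640 + 10% FBS, plated overnight, then exposed to compound for 6 days (37 °C, 5% CO2). Viability by CellTiter-Glo luminescence. Dilutions: 8–9 points from 1 or 10 μM (1:3), or 22 points from 10 or 50 μM (1:2); IC50 by 4-parameter or Hill −1 fit.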

Q: With CN(C(=O)c1cc2c(cc1F)nc(N)c1cnn(C)c12)[C@H]1COCc2ncccc21 (single isomer, unassigned) [Example 424] as the compound, how does the IC50 read?
A: 593 nM

Q: How did the IC50 turn out when CN(C(=O)c1cc2c(cc1F)nc(N)c1cnn(C)c12)[C@@H]1COCc2c(F)cncc21 (single isomer, unassigned) [Example 425] was run?
A: 158 nM

Q: With CN(C(=O)c1cc2c(cc1F)nc(N)c1cnn(C)c12)[C@H]1COCc2c(F)cncc21 (single isomer, unassigned) [Example 426] as the compound, how does the IC50 read?
A: 355 nM

Q: For COc1ccc2c(c1)COC[C@H]2N(C)C(=O)c1cc2c(cc1F)nc(N)c1cnn(C)c12 (single isomer, unassigned) [Example 427], which IC50 is on record?
A: 8 nM

Q: How did the IC50 turn out when COc1ccc2c(c1)COC[C@@H]2N(C)C(=O)c1cc2c(cc1F)nc(N)c1cnn(C)c12 (single isomer, unassigned) [Example 428] was run?
A: 275 nM

Q: Which IC50 does the source give for CN(C(=O)c1cc2c(cc1F)nc(N)c1cnn(C)c12)[C@@H]1CCCc2nc(C(F)(F)F)ccc21 (single isomer, unassigned) [Example 429] here?
A: 49 nM

Q: With CN(C(=O)c1cc2c(cc1F)nc(N)c1cnn(C)c12)[C@@H]1COCc2cc(OC(F)(F)F)ccc21 (single isomer, unassigned) [Example 430] as the compound, how does the IC50 read?
A: 3 nM

Q: How did the IC50 turn out when CN(C(=O)c1cc2c(cc1F)nc(N)c1cnn(C)c12)[C@H]1COCc2cc(OC(F)(F)F)ccc21 (single isomer, unassigned) [Example 431] was run?
A: 305 nM

Q: For CN(C(=O)c1cc2c(cc1F)nc(N)c1cnn(C)c12)[C@@H]1COCc2c1ccc(C(F)(F)F)c2F (single isomer, unassigned) [Example 432], which IC50 is on record?
A: 9 nM

Q: Which IC50 does the source give for CN(C(=O)c1cc2c(cc1F)nc(N)c1cnn(C)c12)[C@H]1COCc2c1ccc(C(F)(F)F)c2F (single isomer, unassigned) [Example 433] here?
A: 418 nM

Q: Which IC50 does the source give for CN(C(=O)c1cc2c(cc1F)nc(N)c1cnn(C)c12)[C@@H]1CC(C)(C)Cc2nc(C(F)(F)F)ccc21 (single isomer, unassigned) [Example 434] here?
A: 223 nM

Q: How did the IC50 turn out when CN(C(=O)c1cc2c(cc1F)nc(N)c1cnn(C)c12)[C@H]1CC(C)(C)Cc2nc(C(F)(F)F)ccc21 (single isomer, unassigned) [Example 435] was run?
A: 320 nM

Q: How did the IC50 turn out when Cc1cc2nc(N)c3cnn(C)c3c2cc1C(=O)N(C)[C@@H]1COCc2c1ccc(C(F)(F)F)c2F (single isomer, unassigned) [Example 436] was run?
A: 2 nM

Q: Cc1cc2nc(N)c3cnn(C)c3c2cc1C(=O)N(C)[C@H]1COCc2c1ccc(C(F)(F)F)c2F (single isomer, unassigned) [Example 437] was tested. Which IC50 did it give?
A: 41 nM

Q: With CCOc1ccc2c(n1)COC[C@H]2N(C)C(=O)c1ccc2nc(N)c3c(cnn3C)c2c1 (single isomer, unassigned) [Example 438] as the compound, how does the IC50 read?
A: 193 nM

Q: How did the IC50 turn out when CN(C(=O)c1cc2c(cc1F)nc(N)c1c2cnn1C)[C@@H]1CCCc2nc(C(F)(F)F)ccc21 (single isomer, unassigned) [Example 439] was run?
A: 192 nM

Q: Which IC50 does the source give for CN(C(=O)c1cc2c(cc1F)nc(N)c1c2cnn1C)[C@@H]1COCc2c1ccc(C(F)(F)F)c2F (single isomer, unassigned) [Example 440] here?
A: 48 nM

Q: For CN(C(=O)c1ccc2nc(N)c3cnn(C)c3c2c1)[C@@H]1CCOCc2nc(C(F)(F)F)ccc21 (single isomer, unassigned) [Example 441], which IC50 is on record?
A: 181 nM

Q: With CN(C(=O)c1cc2c3c(c(N)nc2cn1)COC3)[C@@H]1COc2cc(C(F)(F)F)ccc21 (single isomer, unassigned) [Example 522] as the compound, how does the IC50 read?
A: 63 nM

Q: How did the IC50 turn out when CN(C(=O)c1cc2c3c(c(N)nc2cn1)COC3)[C@H]1COc2cc(C(F)(F)F)ccc21 (single isomer, unassigned) [Example 523] was run?
A: 2720 nM

Q: Which IC50 does the source give for COc1ccc2c(n1)OC[C@H]2N(C)C(=O)c1ccc2nc(N)c3c(c2c1)COC3 (single isomer, unassigned) [Example 524] here?
A: 396 nM

Q: COc1ccc2c(n1)OC[C@@H]2N(C)C(=O)c1ccc2nc(N)c3c(c2c1)COC3 (single isomer, unassigned) [Example 525] was tested. Which IC50 did it give?
A: 4160 nM

Q: With CN(C(=O)c1ccc2nc(N)c3c(c2c1)COC3)[C@@H]1COc2cc(OC(F)F)ccc21 (single isomer, unassigned) [Example 526] as the compound, how does the IC50 read?
A: 52 nM

Q: For CN(C(=O)c1ccc2nc(N)c3c(c2c1)COC3)[C@@H]1CCc2nc(C(F)(F)F)ccc21 (single isomer, unassigned) [Example 527], which IC50 is on record?
A: 143 nM

tested on: HCT116 WT cells; test: HCT116 WT (parent) cell line proliferation / cell viability (CellTiter-Glo, 6 days); type: cell-based; conditions: Homo sapiens, HCT-116, 144 h, 6 days treatment
Summary of the method: as §1

Q: CN(C(=O)c1cc2c(cc1F)nc(N)c1cnn(C)c12)[C@H]1COCc2ncccc21 (single isomer, unassigned) [Example 424] was tested. Which IC50 did it give?
A: 18600 nM

Q: CN(C(=O)c1cc2c(cc1F)nc(N)c1cnn(C)c12)[C@@H]1COCc2c(F)cncc21 (single isomer, unassigned) [Example 425] was tested. Which IC50 did it give?
A: 13400 nM

Q: How did the IC50 turn out when CN(C(=O)c1cc2c(cc1F)nc(N)c1cnn(C)c12)[C@H]1COCc2c(F)cncc21 (single isomer, unassigned) [Example 426] was run?
A: 27900 nM

Q: With COc1ccc2c(c1)COC[C@H]2N(C)C(=O)c1cc2c(cc1F)nc(N)c1cnn(C)c12 (single isomer, unassigned) [Example 427] as the compound, how does the IC50 read?
A: 247 nM

Q: With COc1ccc2c(c1)COC[C@@H]2N(C)C(=O)c1cc2c(cc1F)nc(N)c1cnn(C)c12 (single isomer, unassigned) [Example 428] as the compound, how does the IC50 read?
A: 8340 nM

Q: With CN(C(=O)c1cc2c(cc1F)nc(N)c1cnn(C)c12)[C@@H]1CCCc2nc(C(F)(F)F)ccc21 (single isomer, unassigned) [Example 429] as the compound, how does the IC50 read?
A: 2350 nM

Q: For CN(C(=O)c1cc2c(cc1F)nc(N)c1cnn(C)c12)[C@@H]1COCc2cc(OC(F)(F)F)ccc21 (single isomer, unassigned) [Example 430], which IC50 is on record?
A: 75 nM

Q: For CN(C(=O)c1cc2c(cc1F)nc(N)c1cnn(C)c12)[C@H]1COCc2cc(OC(F)(F)F)ccc21 (single isomer, unassigned) [Example 431], which IC50 is on record?
A: 5880 nM

Q: CN(C(=O)c1cc2c(cc1F)nc(N)c1cnn(C)c12)[C@@H]1COCc2c1ccc(C(F)(F)F)c2F (single isomer, unassigned) [Example 432] was tested. Which IC50 did it give?
A: 127 nM

Q: For CN(C(=O)c1cc2c(cc1F)nc(N)c1cnn(C)c12)[C@H]1COCc2c1ccc(C(F)(F)F)c2F (single isomer, unassigned) [Example 433], which IC50 is on record?
A: 3280 nM

Q: CN(C(=O)c1cc2c(cc1F)nc(N)c1cnn(C)c12)[C@@H]1CC(C)(C)Cc2nc(C(F)(F)F)ccc21 (single isomer, unassigned) [Example 434] was tested. Which IC50 did it give?
A: 11500 nM

Q: How did the IC50 turn out when CN(C(=O)c1cc2c(cc1F)nc(N)c1cnn(C)c12)[C@H]1CC(C)(C)Cc2nc(C(F)(F)F)ccc21 (single isomer, unassigned) [Example 435] was run?
A: 13400 nM

Q: Which IC50 does the source give for Cc1cc2nc(N)c3cnn(C)c3c2cc1C(=O)N(C)[C@@H]1COCc2c1ccc(C(F)(F)F)c2F (single isomer, unassigned) [Example 436] here?
A: 23 nM

Q: Which IC50 does the source give for Cc1cc2nc(N)c3cnn(C)c3c2cc1C(=O)N(C)[C@H]1COCc2c1ccc(C(F)(F)F)c2F (single isomer, unassigned) [Example 437] here?
A: 687 nM

Q: For CCOc1ccc2c(n1)COC[C@H]2N(C)C(=O)c1ccc2nc(N)c3c(cnn3C)c2c1 (single isomer, unassigned) [Example 438], which IC50 is on record?
A: 25200 nM

Q: Which IC50 does the source give for CN(C(=O)c1cc2c(cc1F)nc(N)c1c2cnn1C)[C@@H]1CCCc2nc(C(F)(F)F)ccc21 (single isomer, unassigned) [Example 439] here?
A: 9460 nM

Q: With CN(C(=O)c1cc2c(cc1F)nc(N)c1c2cnn1C)[C@@H]1COCc2c1ccc(C(F)(F)F)c2F (single isomer, unassigned) [Example 440] as the compound, how does the IC50 read?
A: 3010 nM

Q: With CN(C(=O)c1ccc2nc(N)c3cnn(C)c3c2c1)[C@@H]1CCOCc2nc(C(F)(F)F)ccc21 (single isomer, unassigned) [Example 441] as the compound, how does the IC50 read?
A: 9310 nM

Q: With CN(C(=O)c1cc2c3c(c(N)nc2cn1)COC3)[C@@H]1COc2cc(C(F)(F)F)ccc21 (single isomer, unassigned) [Example 522] as the compound, how does the IC50 read?
A: 2470 nM

Q: Which IC50 does the source give for CN(C(=O)c1cc2c3c(c(N)nc2cn1)COC3)[C@H]1COc2cc(C(F)(F)F)ccc21 (single isomer, unassigned) [Example 523] here?
A: 10000 nM

Q: With COc1ccc2c(n1)OC[C@H]2N(C)C(=O)c1ccc2nc(N)c3c(c2c1)COC3 (single isomer, unassigned) [Example 524] as the compound, how does the IC50 read?
A: 24500 nM

Q: How did the IC50 turn out when COc1ccc2c(n1)OC[C@@H]2N(C)C(=O)c1ccc2nc(N)c3c(c2c1)COC3 (single isomer, unassigned) [Example 525] was run?
A: 50000 nM

Q: Which IC50 does the source give for CN(C(=O)c1ccc2nc(N)c3c(c2c1)COC3)[C@@H]1COc2cc(OC(F)F)ccc21 (single isomer, unassigned) [Example 526] here?
A: 3820 nM

Q: Which IC50 does the source give for CN(C(=O)c1ccc2nc(N)c3c(c2c1)COC3)[C@@H]1CCc2nc(C(F)(F)F)ccc21 (single isomer, unassigned) [Example 527] here?
A: 7520 nM
